Some results are limits rather than exact numbers.

The test system of assay [1] is HEK-293 cells. Nature of the assay: HEK-293 cytotoxicity detection (CellTiter-Glo). It counts as cell-based. The conditions noted are these: Homo sapiens; HEK-293 cells, 72 h incubation, CellTiter-Glo luminescence, IC50 of cell proliferation inhibition; read-out: HEK293. Summed up: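 Four-parameter logistic fitting of percent inhibition versus concentration gives IC50. Luminescent ATP read-out (CellTiter-Glo) after 72 h compound treatment of HEK-293 cells, 8 doses in 4-fold steps from a 5 mM 500× DMSO stock, final DMSO 0.2%.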
(Cellular ATP, detected with luciferase, serves as a proxy for viable cell number.)

Assay [2] addresses T1, BTK (Homo sapiens, UniProt Q06187).
T1 construct: High control=Cell group with added DMSO and without compound, indicating microplate readings without BTK degradation; endogenous in cells; host or cells: TMD-8
Nature of the assay: BTK degradation in TMD-8 cells (HTRF assay). The conditions noted are these: 6 h treatment, IC50 (DC50) of BTK degradation. Format: cell-based. Put shortly: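 BTK remaining after compound treatment was measured by HTRF (337 nm excitation, 665/620 nm emission) in lysates of TMD-8 cells. Cells were exposed for 6 h to eight 6-fold-spaced concentrations in 0.2% DMSO. DC50 values were obtained from a Hill-equation fit (top, bottom, slope) of % inhibition.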
A general note: In TR-FRET formats the signal depends on donor and acceptor labels being close together.

T1 sequence (Q06187 whole entry): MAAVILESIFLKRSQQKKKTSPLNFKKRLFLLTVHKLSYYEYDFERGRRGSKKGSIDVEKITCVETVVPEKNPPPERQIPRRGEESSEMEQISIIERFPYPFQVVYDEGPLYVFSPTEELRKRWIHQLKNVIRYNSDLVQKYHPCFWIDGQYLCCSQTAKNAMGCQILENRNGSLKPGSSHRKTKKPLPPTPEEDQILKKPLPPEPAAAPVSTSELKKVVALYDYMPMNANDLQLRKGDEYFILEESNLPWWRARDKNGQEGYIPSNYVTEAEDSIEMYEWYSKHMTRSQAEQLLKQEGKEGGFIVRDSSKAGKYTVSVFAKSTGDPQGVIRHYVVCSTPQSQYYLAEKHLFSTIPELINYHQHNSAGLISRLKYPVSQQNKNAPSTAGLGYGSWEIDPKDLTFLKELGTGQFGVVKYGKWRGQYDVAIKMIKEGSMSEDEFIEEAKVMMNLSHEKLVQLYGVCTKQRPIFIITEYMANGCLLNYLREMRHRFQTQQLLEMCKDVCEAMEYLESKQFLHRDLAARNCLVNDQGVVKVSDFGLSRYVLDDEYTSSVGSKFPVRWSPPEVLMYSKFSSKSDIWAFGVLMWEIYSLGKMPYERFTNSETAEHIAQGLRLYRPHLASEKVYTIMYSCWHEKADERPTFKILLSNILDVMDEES

Take `Cc1cc2c(cc1N1CCN(CC3CCN(c4ccc(N5CCC(=O)NC5=O)cc4)CC3)CC1)[nH]c1ncnc(-c3cc(CO)c([C@@H](C)NC(=O)c4nc(C(C)(C)C)no4)cc3F)c12` [Example 40, (R)-3-(tert-butyl)-N-(1-(4-(7-(4-((1-(4-(2,4-dioxotetrahydropyrimidin-1(2H)-yl)phenyl)piperidin-4-yl)methyl)piperazin-1-yl)-6-methyl-9H-pyrimido[4,5-b]indol-4-yl)-5-fluoro-2-(hydroxymethyl)phenyl)ethyl)-1,2,4-oxadiazole-5-carboxamide]: in assay [1], the IC50 was greater than 10000 nM. Further, the half-maximal degradation concentration (DC50) (usually the concentration at which degradation of the target reaches its halfway point) in assay [2] turned out to be 2.12 nM.
For `Cc1cc(-c2ncnc3[nH]c4cc(C5CCN(C6CC(c7ccc(C8CCC(=O)NC8=O)cc7)C6)CC5)ncc4c23)ccc1[C@@H](C)NC(=O)c1nc(C(C)(C)C)no1` (stereo partly drawn) [Example 41, 3-(tert-butyl)-N-((1R)-1-(4-(7-(1-(3-(4-(2,6-dioxopiperidin-3-yl)phenyl)cyclobutyl)piperidin-4-yl)-9H-pyrido[3′,4′:4,5]pyrrolo[2,3-d]pyrimidin-4-yl)-2-methylphenyl)ethyl)-1,2,4-oxadiazole-5-carboxamide] the same measures were 3350 nM and 1.85 nM.
In the case of `Cc1cc(-c2ncnc3[nH]c4cc(C5CCN(CC6CCN(c7ccc(N8CCC(=O)NC8=O)cc7)CC6)CC5)ncc4c23)ccc1[C@@H](C)NC(=O)c1nc(C(C)(C)C)no1` [Example 42, (R)-3-(tert-butyl)-N-(1-(4-(7-(1-((1-(4-(2,4-dioxotetrahydropyrimidin-1(2H)-yl)phenyl)piperidin-4-yl)methyl)piperidin-4-yl)-9H-pyrido[3′,4′:4,5]pyrrolo[2,3-d]pyrimidin-4-yl)-2-methylphenyl)ethyl)-1,2,4-oxadiazole-5-carboxamide], in assay [1], the IC50 stood at 6730 nM. Moreover, the DC50 in assay [2] was 1.29 nM.
`Cc1cc(-c2ncnc3[nH]c4cc(N5CCN(CC6CCN(c7ccc(N8CCC(=O)NC8=O)cc7)CC6)CC5)c(C)cc4c23)ccc1[C@@H](C)NC(=O)c1nc(C(C)(C)C)no1` [Example 43, (R)-3-(tert-butyl)-N-(1-(4-(7-(4-((1-(4-(2,4-dioxotetrahydropyrimidin-1(2H)-yl)phenyl)piperidin-4-yl)methyl)piperazin-1-yl)-6-methyl-9H-pyrimido[4,5-b]indol-4-yl)-2-methylphenyl)ethyl)-1,2,4-oxadiazole-5-carboxamide]: the IC50 in assay [1] was greater than 10000 nM. The same molecule had a DC50 in assay [2] of 1.22 nM.
For `Cc1cc(-c2ncnc3[nH]c4cc(N5CCN(CC6CCN(c7ccc(N8CCC(=O)NC8=O)cc7)CC6)CC5)c(C)cc4c23)c(F)cc1[C@@H](C)NC(=O)c1noc(C(C)(C)C)n1` [Example 44, (R)-5-(tert-butyl)-N-(1-(4-(7-(4-((1-(4-(2,4-dioxotetrahydropyrimidin-1(2H)-yl)phenyl)piperidin-4-yl)methyl)piperazin-1-yl)-6-methyl-9H-pyrimido[4,5-b]indol-4-yl)-5-fluoro-2-methylphenyl)ethyl)-1,2,4-oxadiazole-3-carboxamide] the same measures were greater than 10000 nM and 1.38 nM.
On to `Cc1cc2c(cc1N1CCN(CC3CCN(c4ccc(N5CCC(=O)NC5=O)cc4)CC3)CC1)[nH]c1ncnc(-c3ccc([C@@H](C)NC(=O)c4noc(C(C)(C)C)n4)c(C)c3F)c12` [Example 45, (R)-5-(tert-butyl)-N-(1-(4-(7-(4-((1-(4-(2,4-dioxotetrahydropyrimidin-1(2H)-yl)phenyl)piperidin-4-yl)methyl)piperazin-1-yl)-6-methyl-9H-pyrimido[4,5-b]indol-4-yl)-3-fluoro-2-methylphenyl)ethyl)-1,2,4-oxadiazole-3-carboxamide], for which, in assay [1], the IC50 was greater than 10000 nM. Further, half-maximal degradation in assay [2] (DC50) was put at 1.05 nM.
For `COc1cc2c(cc1N1CCN(CC3CCN(c4ccc(N5CCC(=O)NC5=O)cc4)CC3)CC1)[nH]c1ncnc(-c3ccc([C@@H](C)NC(=O)c4nc(C(C)(C)C)no4)c(C)c3)c12` [Example 46, (R)-3-(tert-butyl)-N-(1-(4-(7-(4-((1-(4-(2,4-dioxotetrahydropyrimidin-1(2H)-yl)phenyl)piperidin-4-yl)methyl)piperazin-1-yl)-6-methoxy-9H-pyrimido[4,5-b]indol-4-yl)-2-methylphenyl)ethyl)-1,2,4-oxadiazole-5-carboxamide] the same measures were greater than 10000 nM and 0.366 nM.
The matching figures for `COc1cc2c(cc1N1CCN(CC3CC(c4ccc(C5CCC(=O)NC5=O)cc4)C3)CC1)[nH]c1ncnc(-c3ccc([C@@H](C)NC(=O)c4nc(C(C)(C)C)no4)c(C)c3)c12` (stereo partly drawn) [Example 47, 3-(tert-butyl)-N-((1R)-1-(4-(7-(4-((3-(4-(2,6-dioxopiperidin-3-yl)phenyl)cyclobutyl)methyl)piperazin-1-yl)-6-methoxy-9H-pyrimido[4,5-b]indol-4-yl)-2-methylphenyl)ethyl)-1,2,4-oxadiazole-5-carboxamide]: greater than 10000 nM and 1.7 nM.
The matching figures for `COc1cc2c(cc1N1CCN(C3CCC(c4ccc(C5CCC(=O)NC5=O)cc4)CC3)CC1)[nH]c1ncnc(-c3ccc([C@@H](C)NC(=O)c4nc(C(C)(C)C)no4)c(C)c3)c12` (stereo partly drawn) [Example 48, 3-(tert-butyl)-N-((1R)-1-(4-(7-(4-(4-(4-(2,6-dioxopiperidin-3-yl)phenyl)cyclohexyl)piperazin-1-yl)-6-methoxy-9H-pyrimido[4,5-b]indol-4-yl)-2-methylphenyl)ethyl)-1,2,4-oxadiazole-5-carboxamide]: greater than 10000 nM and 0.874 nM.
`COc1cc2c(cc1N1CCN(C3CC(c4ccc([C@@H]5CCC(=O)NC5=O)cc4)C3)CC1)[nH]c1ncnc(-c3ccc([C@@H](C)NC(=O)c4nc(C(C)(C)C)no4)c(C)c3)c12` (stereo partly drawn) [Example 49, 3-(tert-butyl)-N—((R)-1-(4-(7-(4-(3-(4-((S)-2,6-dioxopiperidin-3-yl)phenyl)cyclobutyl)piperazin-1-yl)-6-methoxy-9H-pyrimido[4,5-b]indol-4-yl)-2-methylphenyl)ethyl)-1,2,4-oxadiazole-5-carboxamide]: the IC50 in assay [1] is greater than 10000 nM. Moreover, it took 1.08 nM to reach half-maximal degradation in assay [2] (DC50).
For `COc1cc2c(cc1N1CCN(C3CC(c4ccc([C@H]5CCC(=O)NC5=O)cc4)C3)CC1)[nH]c1ncnc(-c3ccc([C@@H](C)NC(=O)c4nc(C(C)(C)C)no4)c(C)c3)c12` (stereo partly drawn) [Example 50, 3-(tert-butyl)-N—((R)-1-(4-(7-(4-(3-(4-((R)-2,6-dioxopiperidin-3-yl)phenyl)cyclobutyl)piperazin-1-yl)-6-methoxy-9H-pyrimido[4,5-b]indol-4-yl)-2-methylphenyl)ethyl)-1,2,4-oxadiazole-5-carboxamide] the same measures were greater than 10000 nM and 0.171 nM.
Consider `COc1cc2c(cc1N1CCN(C3CCN(c4cccc(C5CCC(=O)NC5=O)c4)C3)CC1)[nH]c1ncnc(-c3ccc([C@@H](C)NC(=O)c4nc(C(C)(C)C)no4)c(C)c3)c12` (stereo partly drawn) [Example 51, 3-(tert-butyl)-N-((1R)-1-(4-(7-(4-(1-(3-(2,6-dioxopiperidin-3-yl)phenyl)pyrrolidin-3-yl)piperazin-1-yl)-6-methoxy-9H-pyrimido[4,5-b]indol-4-yl)-2-methylphenyl)ethyl)-1,2,4-oxadiazole-5-carboxamide], for which the IC50 in assay [1] was greater than 10000 nM. For the same molecule, in assay [2], the DC50 came out at 0.987 nM.
For `COc1cc2c(cc1N1CCN(CC3CCN(c4ccc(N5CCC(=O)NC5=O)cc4)CC3)CC1)[nH]c1ncnc(-c3ccc([C@@H](C)NC(=O)c4nc(C5(C)CC5)no4)c(C)c3)c12` [Example 52, (R)—N-(1-(4-(7-(4-((1-(4-(2,4-dioxotetrahydropyrimidin-1(2H)-yl)phenyl)piperidin-4-yl)methyl)piperazin-1-yl)-6-methoxy-9H-pyrimido[4,5-b]indol-4-yl)-2-methylphenyl)ethyl)-3-(1-methylcyclopropyl)-1,2,4-oxadiazole-5-carboxamide] the same measures were greater than 10000 nM and 0.361 nM.
With `COc1cc2c(cc1N1CCN(CC3CCN(c4ccc(N5CCC(=O)NC5=O)cc4)CC3)CC1)[nH]c1ncnc(-c3ccc([C@@H](C)NC(=O)c4nc(C5(C)CC5)no4)c(C)c3F)c12` [Example 53, (R)—N-(1-(4-(7-(4-((1-(4-(2,4-dioxotetrahydropyrimidin-1(2H)-yl)phenyl)piperidin-4-yl)methyl)piperazin-1-yl)-6-methoxy-9H-pyrimido[4,5-b]indol-4-yl)-3-fluoro-2-methylphenyl)ethyl)-3-(1-methylcyclopropyl)-1,2,4-oxadiazole-5-carboxamide], the IC50 in assay [1] was greater than 10000 nM. Moreover, the DC50 in assay [2] amounted to 2.26 nM.
Regarding `COc1cc2c(cc1N1CCN(CC3CCN(c4ccc(N5CCC(=O)NC5=O)cc4)CC3)CC1)[nH]c1ncnc(-c3ccc([C@@H](C)NC(=O)c4nc(C(C)(C)C)no4)c(C)c3F)c12` [Example 54, (R)-3-(tert-butyl)-N-(1-(4-(7-(4-((1-(4-(2,4-dioxotetrahydropyrimidin-1(2H)-yl)phenyl)piperidin-4-yl)methyl)piperazin-1-yl)-6-methoxy-9H-pyrimido[4,5-b]indol-4-yl)-3-fluoro-2-methylphenyl)ethyl)-1,2,4-oxadiazole-5-carboxamide], the IC50 in assay [1] was greater than 10000 nM. Also, in assay [2], half-maximal degradation (DC50) was put at 3.05 nM.
The matching figures for `COc1cc2c(cc1N1CCN(C3CC(c4ccc([C@@H]5CCC(=O)NC5=O)cc4)C3)CC1)[nH]c1ncnc(-c3ccc([C@@H](C)NC(=O)c4nc(C(C)(C)C)no4)c(C)c3F)c12` (stereo partly drawn) [Example 55, 3-(tert-butyl)-N—((R)-1-(4-(7-(4-(3-(4-((S)-2,6-dioxopiperidin-3-yl)phenyl)cyclobutyl)piperazin-1-yl)-6-methoxy-9H-pyrimido[4,5-b]indol-4-yl)-3-fluoro-2-methylphenyl)ethyl)-1,2,4-oxadiazole-5-carboxamide]: greater than 10000 nM and 6.97 nM.

These data come from patent US20240366770A1, “DEGRADATION OF BRUTON'S TYROSINE KINASE (BTK) BY CONJUGATION OF BTK INHIBITORS WITH E3 LIGASE LIGAND AND METHODS OF USE” (BeiGene Switzerland GmbH, priority 2021, published 2024).
